How the values were obtained:
[1] = molecular target: carbonic anhydrase II (CA-II) (Bos taurus, UniProt P00921); test: Carbonic anhydrase assay (p-nitrophenyl acetate hydrolysis); assay type: biochemical, bovine; details: for IC50: bovine enzyme, mean ± SEM
Description: As mentioned previously, the inhibition of carbonic anhydrase was investigated with adjustments. The method relies on the fact that carbonic anhydrase hydrolyzes p-nitrophenyl acetate into yellow-colored p-nitrophenol, which is then quantified spectrophotometrically. Each well contained 120 µL of a 50 mM Tris-sulfate buffer (pH 7.6, containing 0.1 mM ZnCl2), 20 µL of an inhibitor, and 20 µL of bovine enzyme (50 U). The materials were properly mixed and incubated for 10 min at 25 degrees Celsius. The substrate p-nitrophenyl acetate was synthesized (6 mM stock using <5% acetonitrile in buffer and used fresh each time) and 40 µL was added per well to achieve a concentration of […] per well. The total volume of the reaction was 200 µL. […] Each concentration was assessed in three distinct tests. The IC50 values were calculated with GraphPad Prism 5.0 [38] and nonlinear regression (GraphPad, San Diego, CA USA). (2) Inhibition (%)=B−S/B×100
Here, B and S represent the absorbances of the blank and sample, respectively.

carbonic anhydrase = carbonic anhydrase (Bos taurus, UniProt P00921); test: Kinetic analysis of carbonic anhydrase inhibition (Lineweaver–Burk plots); assay type: biochemical, bovine
Description: Based on the IC50 values, the most efficacious carbonic anhydrase inhibitor, compound 6e, was designated for kinetic investigation. Lineweaver-–Burk plots and a second plot are depicted in (Figure 3A,B). At various concentrations of the inhibitor and substrate, Lineweaver–Burk plots (plot of 1/V vs. 1/[S]) were generated to determine the kind of inhibition. […] The EI dissociation constant was shown by the second plot (Figure 3B) of the slope vs. the concentration of 6e.
To investigate the kinetic properties of compound 6e, identical experiments to those described in previous study were performed. The compound 6e was selected based on its IC50 value at various concentrations (0.00, 0.78, 1.55, and 3.11 µM, respectively), whereas the substrate concentrations (p-nitrophenyl acetate) were varied from (2, 1, 0.5, 0.25 and 0.125 mM). Other experimental settings mirrored those mentioned in the section under “Carbonic anhydrase assay”. The maximum starting velocity was estimated using the first linear section of absorbance up to 10 min at 1 min intervals. To evaluate the kind of enzyme inhibition, Lineweaver–Burk plots depicting the inverse of velocities (1/V) vs. the inverse of substrate concentration (1/[S] mM^−1) were utilized. […] Version 11 of Microsoft Excel was used to create graphs.

Sequence of carbonic anhydrase II (CA-II) (P00921 whole entry): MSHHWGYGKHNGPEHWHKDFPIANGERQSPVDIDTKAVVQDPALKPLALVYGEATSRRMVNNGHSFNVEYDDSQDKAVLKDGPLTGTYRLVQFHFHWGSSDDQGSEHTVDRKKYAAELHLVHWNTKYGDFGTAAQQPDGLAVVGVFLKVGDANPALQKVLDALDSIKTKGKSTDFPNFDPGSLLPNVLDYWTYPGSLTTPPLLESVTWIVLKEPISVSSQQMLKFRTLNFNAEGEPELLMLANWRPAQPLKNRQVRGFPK
Sequence of carbonic anhydrase (P00921 whole entry): as above

SMILES | melting point [°C] | IC50 [1] [µM] | kind of inhibition (carbonic anhydrase; Lineweaver–Burk plots) | Ki (carbonic anhydrase; from slope vs. concentration of 6e, substrate p-nitrophenyl acetate, read-out: Ki (EI dissociation constant)) [µM] | activity reduced, fold, in comparison to the inhibitory value of derivative 6g ([1]; relative to 6g)
CCOC(=O)C=C1SC(=NC(=O)c2ccccc2C)N(c2cccc(CC)c2)C1=O [Compound 6a] | 235 to 237 | 1.66 ± 0.095 |  |  | 
CCOC(=O)/C=C1\S/C(=N\C(=O)c2ccc(Cl)cc2Cl)N(c2cccc(CC)c2)C1=O [Compound 6b] | 235 to 237 | 67.5 ± 2.71 |  |  | 
CCOC(=O)/C=C1\S/C(=N\C(=O)c2ccccc2Br)N(c2cccc(CC)c2)C1=O [Compound 6c] | 235 to 237 | 60.1 ± 1.92 |  |  | 
CCOC(=O)/C=C1\S/C(=N\C(=O)c2ccc(C)cc2)N(c2cccc(CC)c2)C1=O [Compound 6d] | 235 to 237 | 6.5 ± 0.854 |  |  | 
CCOC(=O)/C=C1\S/C(=N\C(=O)c2cccc(C)c2)N(c2cccc(CC)c2)C1=O [Compound 6e] | 235 to 237 | 1.54 ± 0.016 | competitive mechanism | 2.2 | 
CCOC(=O)/C=C1\S/C(=N\C(=O)c2ccccc2)N(c2cccc(CC)c2)C1=O [Compound 6f] | 235 to 237 | 9.52 ± 1.08 |  |  | 
CCOC(=O)/C=C1\S/C(=N\C(=O)c2cccc(Cl)c2)N(c2cccc(CC)c2)C1=O [Compound 6g] | 235 to 237 | 1.78 ± 0.095 |  |  | 
CCOC(=O)/C=C1\S/C(=N\C(=O)c2ccccc2F)N(c2cccc(CC)c2)C1=O [Compound 6h] | 235 to 237 | 11 ± 1.28 |  |  | 
CCOC(=O)/C=C1\S/C(=N\C(=O)c2ccccc2Cl)N(c2cccc(CC)c2)C1=O [Compound 6i] | 235 to 237 | 5.03 ± 0.659 |  |  | approximately 2.9 fold
CCOC(=O)/C=C1\S/C(=N\C(=O)c2ccc(F)cc2)N(c2cccc(CC)c2)C1=O [Compound 6j] | 235 to 237 | 4.45 ± 0.329 |  |  | 
